Data published in patent US6107316A, “Method for treating protozoal infections” (priority 1998, dated 2000).
Values after ≈ are worked out from the molar mass of the structure shown. Values belong to the compound of their own block, whether it stands above or below them.

Key:
Tetrahymena pyriformis = assay: in vitro growth inhibitory activity against the ciliate Tetrahymena pyriformis; assay type: cell-based, Tetrahymena pyriformis (ATCC strain 30005); details: 24 hours, 25° C., read-out: EC50 Tetrahymena pyriformis
Description: Compounds were evaluated for in vitro growth inhibitory activity against the ciliate Tetrahymena pyriformis, which was used as an indicator organism for the Apicomplexia since by several criteria the ciliates and Apicomplexa are closely related (Edlind T. D. et al., Mol. Phylogenet. Evol. vol. 5, pp. 359-367, 1996). T. pyriformis (ATCC strain 30005) was grown in 1 ml ATCC medium 357 at 25° C. in 4 ml polyallomer culture tubes without shaking. Compounds were dissolved in dimethylsufoxide (DMSO) and added to the cultures (containing 3,000 cells/ml) such that the final DMSO concentration was 0.1-0.3%. […] Parasitol. vol. 84, pp. 355-370, 1996) and Cryptosporidium parvum (Arrowood et al., FEMS Microbial. Lett., vol. 136, pp. 245-249, 1996) were tested for comparison.

Giardia lamblia = assay: in vitro growth inhibitory activity against Giardia lamblia; assay type: cell-based; details: Giardia duodenalis; concentration required to inhibit growth by 50%
Description: 35, pp. 2198-2202 (1991). EC50 values for test compounds, expressed in parts per million (ppm), were calculated from dose response curves and are presented in Table 4. As used herein, the terminology "EC50" means the concentration of test compound required to inhibit growth by 50% are compared to a control lacking the test compound. Metronidazole was included as a standard in the tests for comparative purposes.

Leishmania major = assay: in vitro growth inhibitory activity against L. major promastigotes; assay type: cell-based
Description: 35, pp. 2198-2202 (1991).

Toxoplasma gondii [1] = assay: growth inhibition of T. gondii in L929 host cells ([3H]-uracil incorporation); assay type: cell-based; details: L929 host cells; for inhibition at 5 µg/mL: Toxoplasma gondii, read-out: % Inhibition
Description: (§1) Compounds were tested for it vitro growth inhibitory activity against Toxoplasma gondii replication in L929 (L929-ATCC CCL 1, mouse connective tissue) or HFF (human foreskin fibroblast) host cells using the [^3 H]-uracil incorporation technique as follows. Host cells were grown in 96-well flat-bottom microtiter plates at 37° C in a 5% carbon dioxide environment in modified Eagle's medium containing penicillin, streptomycin and 10% fetal equine serum. Wells containing a homogeneous confluent monolayer of host cells were infected with T. gondii tachyzoites at a ratio of 3 parasites per cell (approximately 6×10^4 tachyzoites per well containing 100 μl of medium). […] Two hours post infection, the cultures were washed to remove free parasites and the various dilutions of test compound were added. Cells were subsequently collected at 24, 48 and 72 hours. Four hours prior to each harvesting 50 Al of [^3 H]-uracil (1 μCi) was added. Cells were collected using a cell harvester and incorporated radioactivity was measured using a scintillation counter. […]

Cryptosporidium parvum = assay: growth inhibitory activity against C. parvum in host MDBKF5D2 cells (immunofluorescence); assay type: cell-based
Description: (§2) Compounds were tested for in vitro growth inhibitory activity against C. parvum grown in host MDBKF5D2 cells and for toxicity towards the host cells as follows. […] To test for toxicity towards the host cells, the media containing test compound (200 μl) were introduced into two wells of a 96 well microtiter plate containing confluent MDBKF5D2 cell monolayers and two wells without monolayers, and incubated at 37° C. in an 8% carbon dioxide environment. After 48 hours, the tetrazolium salt MTS (Owen's solution) and phenazine methosulfate were added to each well at concentrations of 333 μg/ml and 25 μM, respectively. The plate was returned to the incubator in the dark to develop for 2 hours, then 100 μl of each supernatant was transferred to a new microtiter plate and read spectrophotometrically in a plate reader at a wavelength of 490 nm. Percent toxicity was calculated by subtracting the mean optical density (OD) of the drug supernatants from the OD of medium control supernatants (no drug), dividing by the OD of the medium control, and multiplying by 100. To test for growth inhibitory activity against C. parvum, 3×10^4 oocysts per well were incubated in mentioned concentrations of each drug at 37° C. (8% CO2) on confluent MDBKF5D2 cell monolayers in 96 well microtiter plates. After 48 hours, the level of infection in each well was determined by means of an immunofluorescence assay. Percent inhibition of growth was calculated by subtracting the mean parasite count in the wells containing test compound from the mean parasite count in the medium control wells (no test compound), dividing by the mean parasite count in the medium control wells, and multiplying by 100. Paromomycin was included in the test as a standard.

[2] = cytotoxicity towards L929 host cells (Cell Titer 96); details: mouse, % Inhibition of host cell growth (values in parenthesis)
Description: (§3) Cytotoxicity of the test compounds towards host cells was determined using the Cell Titer 96™ it (Promega Corporation, Madison, Wis.) as follows. Cells were seeded at a concentration of 5×10^3 cells per well containing 100 μl of medium in 96-well flat-bottom microtiter plates and incubated at 37° C. in a 5% carbon dioxide environment for 4 hours. Dilutions of the test compounds prepared as described above were then added, and incubation continued for 24, 48 or 72 hours. Four hours before each of these time points the growth medium containing test compound was replaced with 100 μl of fresh medium followed by addition of 16 μl of the kit dye solution. After incubation at 37° C. for another 4 hours, 100 μl of the kit solubilization/stop solution was added to each well, the contents of the wells were mixed and the plates kept 1 hour at room temperature. The plates were then read spectrophotometrically in a plate reader at a wavelength of 570 nm. […] Atovaquone was included in the test as a standard.

MDBKF5D2 cells = assay: toxicity towards MDBKF5D2 host cells (MTS); details: 48 hours, 2880 min
Description: as §2

[3] = toxicity towards MDBKF5D2 host cells (MTS); details: bovine, mdbkf5d2 cells, Cytotoxicity (percent toxicity), 100 μM
Description: as §2

[4] = cytotoxicity towards HFF host cells (Cell Titer 96); details: human, % Inhibition of host cell growth (values in parenthesis)
Description: as §3

Toxoplasma gondii [5] = assay: growth inhibition of T. gondii in HFF host cells ([3H]-uracil incorporation); assay type: cell-based; details: HFF host cells; for inhibition at 5 µg/mL: 5.0 μg/ml
Description: as §1

- EC50 (Giardia lamblia): 0.3 mg/L (≈ 0.673 µM)
- EC50 (Leishmania major): 0.2 mg/L (≈ 0.448 µM)
Compound: CCC(C)(NC(=O)c1cc(Cl)cc(Cl)c1)C(=O)C(Br)Br (centres unmarked) [Compound 4]
- EC50 (Tetrahymena pyriformis): 0.1 mg/L (≈ 0.224 µM)

- EC50 (Giardia lamblia): 0.02 mg/L (≈ 0.062 µM)
- EC50 (Leishmania major): 0.06 mg/L (≈ 0.186 µM)
Compound: CCC(C)(NC(=O)c1cc(Cl)cc(Cl)c1)C(=O)CCl (centres unmarked) [Compound 5]
- % Inhibition (Toxoplasma gondii [1]; 0.5 μg/ml, 24 hours): 39.2%
- % Inhibition (Toxoplasma gondii [1]; 0.5 μg/ml, 48 hours): 64.7%
- % Inhibition (Toxoplasma gondii [1]; 0.5 μg/ml, 72 hours): 44.1%
- % Inhibition (Toxoplasma gondii [1]; 5.0 μg/ml, 24 hours): 3.3%
- inhibition at 5 µg/mL (Toxoplasma gondii [1]; L929, 48 h, 5.0 μg/ml, 48 hours): 69.2%
- inhibition at 5 µg/mL (Toxoplasma gondii [1]; L929, 72 h, 5.0 μg/ml, 72 hours): 84%
- % Inhibition (Cryptosporidium parvum; 10 μM, 48 hours): 34.1%
- inhibition at 0.1 µM (Cryptosporidium parvum; Cryptosporidium parvum, 48 h, 0.1 μM): 10%
- inhibition at 1 µM (Cryptosporidium parvum; Cryptosporidium parvum, 48 h, 1.0 μM): 17.4%
- inhibition at 48 h ([2]; L929, 0.5 μg/ml): 0%
- inhibition at 72 h ([2]; L929, 0.5 μg/ml): 0%
- inhibition at 48 h ([2]; L929, 5.0 μg/ml): 66.8%
- inhibition at 72 h ([2]; L929, 5.0 μg/ml): 91.2%
- Cytotoxicity (percent toxicity) (MDBKF5D2 cells; 0.1 μM): 18.8%
- Cytotoxicity (percent toxicity) (MDBKF5D2 cells; 1.0 μM): 6.7%
- Cytotoxicity (percent toxicity) (MDBKF5D2 cells; 10 μM): 31.4%
- cytotoxicity at 48 h, 100 µM [3]: 72.6%
- EC50 (Tetrahymena pyriformis): 0.003 mg/L (≈ 0.0093 µM)
- inhibition at 48 h ([4]; 0.5 μg/ml, 48 hours): 5.3%
- inhibition at 24 h ([4]; 5.0 μg/ml, 24 hours): 8%
- inhibition at 72 h ([4]; 5.0 μg/ml, 72 hours): 39.6%
- % Inhibition (Toxoplasma gondii [5]; 0.5 μg/ml, 48 hours): 97.6%
- % Inhibition (Toxoplasma gondii [5]; 0.5 μg/ml, 72 hours): 80.2%
- inhibition at 0.5 µg/mL (Toxoplasma gondii [5]; Toxoplasma gondii, 24 h, 0.5 μg/ml, 24 hours, read-out: % Inhibition): 55.9%
- inhibition at 5 µg/mL (Toxoplasma gondii [5]; Toxoplasma gondii, 24 h, 24 hours, read-out: % Inhibition): 89%
- inhibition at 5 µg/mL (Toxoplasma gondii [5]; Toxoplasma gondii, 48 h, 48 hours, read-out: % Inhibition): 100%
- inhibition at 5 µg/mL (Toxoplasma gondii [5]; Toxoplasma gondii, 72 h, 72 hours, read-out: % Inhibition): 99.6%

- EC50 (Giardia lamblia): 0.009 mg/L (≈ 0.025 µM)
- EC50 (Leishmania major): 0.6 mg/L (≈ 1.67 µM)
Compound: CCC(C)(NC(=O)c1cc(Cl)c(N)c(C=NOC)c1)C(=O)CCl (centres unmarked) [Compound 6, 4-amino-3-chloro-5-methoxyiminomethyl-N-(3-chloro-1-ethyl-1-methyl-2-oxopropyl)benzamide]
- EC50 (Tetrahymena pyriformis): 0.02 mg/L (≈ 0.0555 µM)

- EC50 (Giardia lamblia): 0.05 mg/L (≈ 0.145 µM)
- EC50 (Leishmania major): 0.6 mg/L (≈ 1.74 µM)
Compound: CCC(C)(NC(=O)c1cc(Cl)cc(Cl)c1)C(=O)CSC#N (centres unmarked) [Compound 7]
- EC50 (Tetrahymena pyriformis): 0.07 mg/L (≈ 0.203 µM)
